Reference: US20240293430A1, “WITHAFERIN A AND IMMUNE CHECKPOINT BLOCKER COMBINATION THERAPIES” (University of South Florida, priority 2023, published 2024)

Assays:
[1] = system: PD-L1 expression in MC38, HCT116 colon cancer cell lines; assay: PD-L1 expression in colon cancer cell lines; assay type: cell-based, mouse (MC38), human (HCT116)
Procedure: (§1) FIGS. 8A-8G depict that WFA induced ICD and PD-L1 upregulation in colorectal cancer cell lines. WFA increased the levels of ecto-CRT in the murine colorectal cancer cell line (FIG. 8A) MC-38 and human cell line (FIG. 8B) HCT-116. WFA increased the expression of PD-L1 in both (FIG. 8C) MC-38 and (FIG. 8D) HCT-116 cells. […] H1650 cells (at a higher density) were treated with a higher concentration of WFA (2 and 4 μM) to facilitate cell collection and protein isolation. The band density was quantified using Image J software and normalized to the housekeeping protein. The fold change from untreated control was averaged from two independent experiments ±SEM and one-way ANOVA was used to calculate the statistical significance. A Fisher LSD post hoc test was performed to compare the treatments to the control in (FIG. 8E) LLC, (FIG. 8F) H1650, (FIG. 8G) A549 cells. * p<0.05, ** p<0.01, *** p<0.001, **** p<0.0001.
(§2) In vitro WFA-treated or control cells were collected using Accutase cell detachment solution and stained with FACS-diluted (PBS, 10% FBS, 2 mMEDTA) pre-titrated fluorophore conjugated or primary unconjugated antibody solutions (Table 1) for 30 min on ice in the dark. […]

[2] = system: ecto-CRT in MC38 and HCT-116 colorectal cancer cell lines; assay: Ecto-CRT by flow cytometry, colorectal cancer; assay type: cell-based, mouse (MC38), human (HCT-116)
Procedure: as §1, §2

[3] = system: apoptotic marker transcripts in NSCLC cell lines; assay: qRT-PCR of pro- and anti-apoptotic transcripts; assay type: cell-based, mouse (LLC), human (H1650, A549)
Procedure: FIGS. 1A-lE depict that WFA induces ER stress-mediated apoptosis in NSCLC cell lines. (FIG. 1A) NSCLC cells were plated on 96-well plates and treated with different concentrations of WFA ([…]) in triplicates. Forty-eight hours post-treatment, cell viability was determined using Cell Titer-Glo assay. Luminescence values were normalized to control untreated cells and IC50 values are represented as the mean of two independent experiments ±SEM. (FIG. 1B) NSCLC cells were treated WFA for forty-eight hours, then collected to measure apoptotic cell death using Annexin V assay in LLC cells, H1650 cells, and A549 cells. Percentages of early (annexin*DAPI-) and late (annexin*DAPI+) apoptotic cells are represented as means of two separate experiments ±SEM and statistical significance was calculated using one-way ANOVA and a Fisher LSD post hoc test was used to compare the mean of each group to that of the control group. (FIGS. 1C-1D) WFA treated cells were collected in Trizol and total RNA was isolated to measure the levels of Bax (FIG. 1C) and Bcl2 (FIG. 1D) mRNA using qRT-PCR. PCR experiments were repeated at least twice, and one representative experiment is shown as mean±SEM of the technical replicates. (FIG. 1E) Western blot of ER stress markers p-eIF-2 and CHOP was performed using total lysates of WFA-treated LLC cells. The quantification of western blot band density was performed using Image J software v.1.54d and normalized to housekeeping control protein in LLC cells (0-actin). […] Data were obtained from two independent experiments.
FIGS. 7A-7I depict qRT-PCR analysis of the change in expression of pro-apoptotic and anti-apoptotic induced by WFA treatment. WFA increased the mRNA levels of proapoptotic protein Bak-1 in (FIG. 7A) LLC cells and BAD in (FIG. 7C) H1650 cells. […] PCR was repeated twice, and one representative experiment is shown as mean±SEM of 3 technical replicates. […] (FIGS. 7G-7I) Western blots.
Total cellular RNA was isolated from collected cell pellets using TRIzol reagent (Invitrogen, Waltham, MA, USA) and then quantified using the 2000 Nanodrop spectrophotometer (Thermo Fisher Scientific, Waltham, MA, USA). cDNA synthesis was performed using the Verso cDNA synthesis kit (Thermo Fisher Scientific, Waltham, MA, USA). qPCR was then performed using Forget-Me-Not EvaGreen qPCR Master Mix (Biotium, Fremont, CA, USA) in a Bio-Rad CFX384 thermocycler according to the manufacturer's instructions. The CFX Maestro software version 2.3 (Bio-Rad, Hercules, CA, USA) was used to calculate the ΔCt and ΔΔCt values and gene expression was normalized to housekeeping genes glyceraldehyde 3-phosphate dehydrogenase (GAPDH) or β-actin. The sequences of PCR primers used are listed in Table 2 (Integrated DNA Technologies, Inc, Coralville, IA, USA).

[4] = system: WI-38 lung fibroblasts and PBMCs; settings: at WFA concentrations toxic to A549 NSCLC cells; cited from earlier work
[5] = system: bone marrow-derived DCs co-cultured with WFA-pretreated LLC; settings: DC:LLC 5:1, 24 h co-culture, vs untreated LLC
Procedure: Cells were treated with WFA for 48 h then collected using Accutase cell detachment solution. […] (FIG. 2E) Bone marrow-derived DC were co-cultured with WFA-pretreated LLC cells (24 h) in a ratio 5:1 of DC:LLC cells for 24 h. DC activation markers (CD80, CD86, and MHC-II) were examined by flow cytometry. The means of at least 2 independent experiments ±SEM is represented, and one-way ANOVA was used to calculate statistical significance where * denotes p<0.05, ** denote p<0.01, *** denote p<0.001, and **** denote p<0.0001.
Hierarchical gating was used to identify the total cell population followed by single live cells the CD11C+DC. Out of the CD11C population, the expression of DC cell activation markers was determined based on the fluorescence minus one (FMO) controls.
Myeloid progenitor cells were isolated from the femurs of C57BL/6 mice as described previously [37]. The isolated cells were cultured in RMPI media supplemented with GMCSF and refed as necessary. On day 8, the differentiated DCs (loosely attached) were collected, counted, and added to WFA-pretreated LLCs or untreated control LLCs at a ratio of 5:1 of DC: LLC cells. […] Then the samples were acquired using a BD LSR II flow cytometer and the data were analyzed using FlowJo 8.7 software (BD, Franklin Lakes, NJ, USA).

[6] = system: secreted HMGB-1 from LLC cells; assay: HMGB-1 ELISA of supernatants; assay type: cell-based, mouse; settings: 0.6 μM WFA, 48 h
Procedure: Cells were treated with WFA for 48 h then collected using Accutase cell detachment solution. […] (FIG. 2E) Bone marrow-derived DC were co-cultured with WFA-pretreated LLC cells (24 h) in a ratio 5:1 of DC:LLC cells for 24 h.
LLC cells were plated and treated with WFA or doxorubicin (ICD inducer) for 48 h. Supernatants were collected and centrifuged at 1000 RPM for 10 min. The levels of secreted HMGB-1 were measured using the HMGB-1 detection ELISA kit (Chondrex, 6010, Woodinville, WA, USA) according to the manufacturer's protocol.

For `CC1=C(CO)C(=O)O[C@@H]([C@@H](C)[C@H]2CC[C@H]3[C@@H]4C[C@H]5O[C@]56[C@@H](O)C=CC(=O)[C@]6(C)[C@H]4CC[C@]23C)C1` [WFA, Withaferin A], the PD-L1 expression [1] was “increased”, the “levels of ecto-CRT” value [2] was “increased” and the Bax transcripts [3] was “increased”. For the same molecule, the Bcl-2 transcripts [3] was “reduced”, the BAD transcripts ([3]; H1650 cells) was “increased” and the Survivin transcripts ([3]; LLC and A549) was “reduced”. For the same molecule, the Xiap transcripts ([3]; LLC and A549) was “reduced”, the Bak-1 transcripts ([3]; LLC cells) was “increased” and the “viability of normal cells” value [4] was “remain viable”. The “DC activation markers CD80, CD86, MHC-II” value [5] was “higher levels” and the “HMGB-1 levels secreted in the supernatants” value [6] was “increased”.
